Among the data in ChEMBL document CHEMBL5365526 (J Med Chem, 2023) are Activity, IC50 and inhibition values, retold here.

Activity calls are given as the source filed them. No cut-off for these calls is given here.

For orientation: IC50 means the concentration that gives 50% inhibition.

von Hippel-Lindau disease tumor suppressor/Mitogen-activated protein kinase 7, sequence (P40337 whole entry partner): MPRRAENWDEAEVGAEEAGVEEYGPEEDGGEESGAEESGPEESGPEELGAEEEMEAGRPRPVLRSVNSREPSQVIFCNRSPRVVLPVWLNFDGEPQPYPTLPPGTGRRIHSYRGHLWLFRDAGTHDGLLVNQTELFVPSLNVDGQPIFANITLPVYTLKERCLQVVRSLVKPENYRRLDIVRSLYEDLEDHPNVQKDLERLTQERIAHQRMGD
von Hippel-Lindau disease tumor suppressor/Mitogen-activated protein kinase 7, sequence (Q13164 2-816 limits assumed): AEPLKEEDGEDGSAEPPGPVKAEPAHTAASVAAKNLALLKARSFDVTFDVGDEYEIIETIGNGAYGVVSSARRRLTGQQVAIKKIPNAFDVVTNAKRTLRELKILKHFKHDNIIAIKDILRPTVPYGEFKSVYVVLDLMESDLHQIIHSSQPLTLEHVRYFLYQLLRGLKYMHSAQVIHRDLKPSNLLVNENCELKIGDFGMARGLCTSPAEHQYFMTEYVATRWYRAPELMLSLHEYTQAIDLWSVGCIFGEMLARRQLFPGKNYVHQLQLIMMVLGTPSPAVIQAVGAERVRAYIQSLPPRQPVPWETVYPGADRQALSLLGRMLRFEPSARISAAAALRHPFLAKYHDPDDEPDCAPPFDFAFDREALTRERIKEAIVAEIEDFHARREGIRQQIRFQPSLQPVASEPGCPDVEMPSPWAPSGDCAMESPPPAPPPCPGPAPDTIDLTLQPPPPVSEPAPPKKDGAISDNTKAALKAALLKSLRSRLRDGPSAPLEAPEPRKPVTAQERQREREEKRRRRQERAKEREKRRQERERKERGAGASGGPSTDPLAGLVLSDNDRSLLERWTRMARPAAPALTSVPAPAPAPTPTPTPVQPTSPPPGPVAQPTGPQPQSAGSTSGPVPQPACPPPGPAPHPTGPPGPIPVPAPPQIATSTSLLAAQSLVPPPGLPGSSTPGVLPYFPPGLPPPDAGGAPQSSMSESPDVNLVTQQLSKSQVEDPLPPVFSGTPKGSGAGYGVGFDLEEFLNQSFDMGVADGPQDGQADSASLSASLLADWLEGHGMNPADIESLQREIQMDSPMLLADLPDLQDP

One assay has as its target von Hippel-Lindau disease tumor suppressor/Mitogen-activated protein kinase 7 (Homo sapiens, UniProt Q13164+P40337). As to the kind of experiment: PROTAC activity at VHL/ERK5 in human A-375 cells assessed as induction of ERK5 degradation at 100 nM incubated for 24 hrs by western blot analysis. In kind it is cell-based.
Conditions: not given
In general terms: A western blot detects proteins with antibodies after separation by electrophoresis.
As for `COc1cc(C(=O)N2CCN(CCCCCC(=O)N[C@H](C(=O)N3C[C@H](O)C[C@H]3C(=O)N[C@@H](C)c3ccc(-c4scnc4C)cc3)C(C)(C)C)CC2)ccc1Nc1ncc2c(n1)N(C)c1ccccc1C(=O)N2C`, the outcome was Active.

As for `COc1cc(NC(=O)CCCCCCCCCCNc2cccc3c2C(=O)N(C2CCC(=O)NC2=O)C3=O)ccc1Nc1ncc2c(n1)N(C)c1ccccc1C(=O)N2C` (centres undefined), the outcome was inactive.

With `COc1cc(N2CCN(CCCCCCCCCCC(=O)N[C@H](C(=O)N3C[C@H](O)C[C@H]3C(=O)N[C@@H](C)c3ccc(-c4scnc4C)cc3)C(C)(C)C)CC2)ccc1Nc1ncc2c(n1)N(C)c1ccccc1C(=O)N2C`, the result was Active.

As to `COc1cc(N2CCC(OCCCCCC(=O)N[C@H](C(=O)N3C[C@H](O)C[C@H]3C(=O)N[C@@H](C)c3ccc(-c4scnc4C)cc3)C(C)(C)C)CC2)ccc1Nc1ncc2c(n1)N(C)c1ccccc1C(=O)N2C`, the outcome was Active.

On to `COc1cc(NC(=O)CCCCCn2cc(CCNc3cccc4c3C(=O)N(C3CCC(=O)NC3=O)C4=O)nn2)ccc1Nc1ncc2c(n1)N(C)c1ccccc1C(=O)N2C` (centres undefined), for which the outcome was inactive.

For `COc1cc(NC(=O)NCCOCCOCCNc2cccc3c2C(=O)N(C2CCC(=O)NC2=O)C3=O)ccc1Nc1ncc2c(n1)N(C)c1ccccc1C(=O)N2C` (centres undefined), the outcome was inactive.

For the molecule `COc1cc(NC(=O)NCCCNc2cccc3c2C(=O)N(C2CCC(=O)NC2=O)C3=O)ccc1Nc1ncc2c(n1)N(C)c1ccccc1C(=O)N2C` (centres undefined), the result was inactive.

`COc1cc(N2CCN(CCCCC(=O)N[C@H](C(=O)N3C[C@H](O)C[C@H]3C(=O)N[C@@H](C)c3ccc(-c4scnc4C)cc3)C(C)(C)C)CC2)ccc1Nc1ncc2c(n1)N(C)c1ccccc1C(=O)N2C`: the result was Active.

For `COc1cc(NC(=O)NCCCCCCNc2cccc3c2C(=O)N(C2CCC(=O)NC2=O)C3=O)ccc1Nc1ncc2c(n1)N(C)c1ccccc1C(=O)N2C` (centres undefined), the result was inactive.

On to `COc1cc(N2CCN(CCOCCNc3cccc4c3C(=O)N(C3CCC(=O)NC3=O)C4=O)CC2)ccc1Nc1ncc2c(n1)N(C)c1ccccc1C(=O)N2C` (centres undefined), for which the result was Active.

For the molecule `COc1cc(N2CCN(CCCCCC(=O)N[C@H](C(=O)N3C[C@H](O)C[C@H]3C(=O)N[C@@H](C)c3ccc(-c4scnc4C)cc3)C(C)(C)C)CC2)ccc1Nc1ncc2c(n1)N(C)c1ccccc1C(=O)N2C`, the outcome was Active.

In the case of `COc1cc(N2CCN(CCOCC#Cc3cccc4c3CN(C3CCC(=O)NC3=O)C4=O)CC2)ccc1Nc1ncc2c(n1)N(C)c1ccccc1C(=O)N2C` (centres undefined), the result was Active.

On to `COc1cc(N2CCN(CCCCCCCC(=O)N[C@H](C(=O)N3C[C@H](O)C[C@H]3C(=O)N[C@@H](C)c3ccc(-c4scnc4C)cc3)C(C)(C)C)CC2)ccc1Nc1ncc2c(n1)N(C)c1ccccc1C(=O)N2C`, for which the result was Active.

`COc1cc(NC(=O)NCCCCNc2cccc3c2C(=O)N(C2CCC(=O)NC2=O)C3=O)ccc1Nc1ncc2c(n1)N(C)c1ccccc1C(=O)N2C` (centres undefined): the result was inactive.

Consider `COc1cc(C(=O)N2CCN(C(=O)CCCCC#Cc3cccc4c3CN(C3CCC(=O)NC3=O)C4=O)CC2)ccc1Nc1ncc2c(n1)N(C)c1ccccc1C(=O)N2C` (centres undefined), for which the result was inactive.

Turning to `COc1cc(NC(=O)NCCOCCNc2cccc3c2C(=O)N(C2CCC(=O)NC2=O)C3=O)ccc1Nc1ncc2c(n1)N(C)c1ccccc1C(=O)N2C` (centres undefined), the outcome was inactive.

`COc1cc(N2CCN(CCOCCOCCCN[C@H](C(=O)N3C[C@H](O)C[C@H]3C(=O)N[C@@H](C)c3ccc(-c4scnc4C)cc3)C(C)(C)C)CC2)ccc1Nc1ncc2c(n1)N(C)c1ccccc1C(=O)N2C`: the outcome was Active.

Regarding `COc1cc(NC(=O)CNc2cccc3c2C(=O)N(C2CCC(=O)NC2=O)C3=O)ccc1Nc1ncc2c(n1)N(C)c1ccccc1C(=O)N2C` (centres undefined), the result was inactive.

Turning to `COc1cc(NC(=O)NCCCCCNc2cccc3c2C(=O)N(C2CCC(=O)NC2=O)C3=O)ccc1Nc1ncc2c(n1)N(C)c1ccccc1C(=O)N2C` (centres undefined), the outcome was inactive.

Consider `COc1cc(N2CCN(CCCCCCCCCC(=O)N[C@H](C(=O)N3C[C@H](O)C[C@H]3C(=O)N[C@@H](C)c3ccc(-c4scnc4C)cc3)C(C)(C)C)CC2)ccc1Nc1ncc2c(n1)N(C)c1ccccc1C(=O)N2C`, for which the outcome was Active.

On to `COc1cc(N2CCN(C(=O)CCCCC#Cc3cccc4c3CN(C3CCC(=O)NC3=O)C4=O)CC2)ccc1Nc1ncc2c(n1)N(C)c1ccccc1C(=O)N2C` (centres undefined), for which the outcome was inactive.

For `COc1cc(NC(=O)NCCOCCOCCOCCNc2cccc3c2C(=O)N(C2CCC(=O)NC2=O)C3=O)ccc1Nc1ncc2c(n1)N(C)c1ccccc1C(=O)N2C` (centres undefined), the outcome was inactive.

On to `COc1cc(N2CCN(CCCCCCCCC(=O)N[C@H](C(=O)N3C[C@H](O)C[C@H]3C(=O)N[C@@H](C)c3ccc(-c4scnc4C)cc3)C(C)(C)C)CC2)ccc1Nc1ncc2c(n1)N(C)c1ccccc1C(=O)N2C`, for which the outcome was Active.

A further assay deals with Mitogen-activated protein kinase 7 (Homo sapiens, UniProt Q13164). As to the kind of experiment: Inhibition of ERK5 (unknown origin) by ADP-Glo kinase assay.
Mitogen-activated protein kinase 7, sequence (Q13164 whole entry): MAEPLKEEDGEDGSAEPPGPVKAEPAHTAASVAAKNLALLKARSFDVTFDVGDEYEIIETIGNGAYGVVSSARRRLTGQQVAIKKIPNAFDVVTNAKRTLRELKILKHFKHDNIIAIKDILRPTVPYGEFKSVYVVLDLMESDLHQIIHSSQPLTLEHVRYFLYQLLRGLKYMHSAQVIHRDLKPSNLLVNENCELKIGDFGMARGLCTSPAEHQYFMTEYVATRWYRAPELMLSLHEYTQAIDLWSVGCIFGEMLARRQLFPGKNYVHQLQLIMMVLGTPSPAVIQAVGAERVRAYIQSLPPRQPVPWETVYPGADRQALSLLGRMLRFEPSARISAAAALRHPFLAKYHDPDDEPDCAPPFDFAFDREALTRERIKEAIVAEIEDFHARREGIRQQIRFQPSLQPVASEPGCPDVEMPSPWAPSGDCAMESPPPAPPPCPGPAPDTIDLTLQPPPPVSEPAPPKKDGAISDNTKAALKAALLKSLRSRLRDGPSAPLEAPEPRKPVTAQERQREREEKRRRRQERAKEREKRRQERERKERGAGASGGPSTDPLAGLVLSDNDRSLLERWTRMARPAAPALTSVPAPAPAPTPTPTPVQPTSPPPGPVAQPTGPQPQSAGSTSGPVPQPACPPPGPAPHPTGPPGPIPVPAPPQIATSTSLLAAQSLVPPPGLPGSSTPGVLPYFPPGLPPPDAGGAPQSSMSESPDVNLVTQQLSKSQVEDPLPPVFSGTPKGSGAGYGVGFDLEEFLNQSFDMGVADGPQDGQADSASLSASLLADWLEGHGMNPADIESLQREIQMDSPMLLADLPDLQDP
Conditions: not given
For orientation: In ADP-Glo the light output rises with the ADP produced.
Consider `CCOC(=O)CCCCCCN1CCN(c2ccc(Nc3ncc4c(n3)N(C)c3ccccc3C(=O)N4C)c(OC)c2)CC1`, for which the IC50 turned out to be 27.1 nM.

Molecule `COc1cc(N2CCN(CCCCCCCC(=O)N[C@H](C(=O)N3C[C@H](O)C[C@H]3C(=O)N[C@@H](C)c3ccc(-c4scnc4C)cc3)C(C)(C)C)CC2)ccc1Nc1ncc2c(n1)N(C)c1ccccc1C(=O)N2C` yielded an IC50 of 67.1 nM.

For `COc1cc(N2CCNCC2)ccc1Nc1ncc2c(n1)N(C)c1ccccc1C(=O)N2C`, the concentration for half-maximal inhibition (IC50) worked out at 10.1 nM.

Tested on in a further assay: not listed separately
The experiment in a line: Inhibition of M2 macrophage development in PMA-differentiated human THP-1 cells assessed as CD206 surface expression at 5 uM incubated for 48 hrs by flow cytometry (reference value: 53.4%). In kind it is functional. On the set-up: scale not given: the % may be the effect or the level left.
Conditions: not given
(In general: A flow cytometer gives signals particle by particle.)
`CCOc1cc(N2CCC(O)CC2)ccc1Nc1ncc2c(n1)N(C)c1ccccc1C(=O)N2C`: the Activity amounted to 44.5%.

Another assay concerns HCT-116. As to the kind of experiment: Inhibition of cell colony formation in human HCT-116 cells at 5 uM cultured in 8% FBS and measured after 7 days in presence of LPS by crystal violet staining based analysis. Format: functional. The note with it: time 7.0 day.
Regarding `CCOc1cc(N2CCC(O)CC2)ccc1Nc1ncc2c(n1)N(C)c1ccccc1C(=O)N2C`, the inhibition entry is “Active”.

For a further assay, the system named is A-375. As to the kind of experiment: Inhibition of cell colony formation in human A-375 cells at 5 uM cultured in 8% FBS and measured after 7 days in presence of LPS by crystal violet staining based analysis. Format: functional. The following applies: time 7.0 day.
As for `CCOc1cc(N2CCC(O)CC2)ccc1Nc1ncc2c(n1)N(C)c1ccccc1C(=O)N2C`, the inhibition entry is “Active”.
